Results: article PMC11345841, “Exploring 2-Sulfonylpyrimidine Warheads as Acrylamide Surrogates for Targeted Covalent Inhibition: A BTK Story” (Journal of Medicinal Chemistry, 2024)
pIC50: −log10 of the molar value. Read-outs that look alike come from different tables or passages of the source.

Legend:
[1] = target: T1, EPHB1 (Homo sapiens, UniProt P54762); assay: KINOMEscan ScanTK; type: binding
T1 construct: purchased Eurofins DiscoverX KINOMEscan (scanTK)
T1 sequence (P54762 18-984): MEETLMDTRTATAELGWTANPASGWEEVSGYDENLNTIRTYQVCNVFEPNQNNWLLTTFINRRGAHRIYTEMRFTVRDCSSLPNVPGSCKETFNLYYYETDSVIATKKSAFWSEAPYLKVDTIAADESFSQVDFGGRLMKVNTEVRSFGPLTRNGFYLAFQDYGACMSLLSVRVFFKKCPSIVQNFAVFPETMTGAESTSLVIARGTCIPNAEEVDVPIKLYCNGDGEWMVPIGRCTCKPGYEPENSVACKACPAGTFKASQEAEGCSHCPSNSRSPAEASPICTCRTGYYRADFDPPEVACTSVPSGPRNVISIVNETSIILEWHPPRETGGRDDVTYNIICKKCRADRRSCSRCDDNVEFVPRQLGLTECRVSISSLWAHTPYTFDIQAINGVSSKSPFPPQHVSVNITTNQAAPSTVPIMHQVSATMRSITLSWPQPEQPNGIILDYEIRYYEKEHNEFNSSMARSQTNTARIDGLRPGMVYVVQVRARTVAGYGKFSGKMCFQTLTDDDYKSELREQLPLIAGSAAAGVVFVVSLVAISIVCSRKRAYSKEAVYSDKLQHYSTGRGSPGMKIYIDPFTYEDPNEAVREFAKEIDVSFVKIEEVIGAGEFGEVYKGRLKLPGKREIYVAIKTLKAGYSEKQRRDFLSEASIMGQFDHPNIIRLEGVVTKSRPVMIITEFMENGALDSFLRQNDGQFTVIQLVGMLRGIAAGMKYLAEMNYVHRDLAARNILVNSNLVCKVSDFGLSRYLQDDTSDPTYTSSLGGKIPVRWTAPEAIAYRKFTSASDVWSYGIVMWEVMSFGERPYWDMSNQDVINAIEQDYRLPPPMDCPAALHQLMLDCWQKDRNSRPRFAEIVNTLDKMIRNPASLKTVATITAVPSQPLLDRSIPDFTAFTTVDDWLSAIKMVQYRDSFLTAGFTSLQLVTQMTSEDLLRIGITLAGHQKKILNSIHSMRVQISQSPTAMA

[2] = target: T2, MET(M1250T) (Homo sapiens, UniProt P08581, M1250T); assay: KINOMEscan ScanTK; type: binding
T2 construct: purchased Eurofins DiscoverX KINOMEscan (scanTK)

[3] = target: T3, CSF1R (Homo sapiens, UniProt P07333); assay: KINOMEscan ScanTK; type: binding
T3 construct: purchased Eurofins DiscoverX KINOMEscan (scanTK)

[4] = target: T4, EPHA4 (Homo sapiens, UniProt P54764); assay: KINOMEscan ScanTK; type: binding
T4 construct: purchased Eurofins DiscoverX KINOMEscan (scanTK)

[5] = target: T5, ALK(L1196M) (Homo sapiens, UniProt Q9UM73, L1196M); assay: KINOMEscan ScanTK; type: binding
T5 construct: purchased Eurofins DiscoverX KINOMEscan (scanTK)

[6] = target: T6, ABL1(T315I)-nonphosphorylated (Homo sapiens, UniProt P00519, T315I); assay: KINOMEscan ScanTK; type: binding
T6 construct: purchased Eurofins DiscoverX KINOMEscan (scanTK)

[7] = target: T7, SYK (Homo sapiens, UniProt P43405); assay: KINOMEscan ScanTK; type: binding
T7 construct: purchased Eurofins DiscoverX KINOMEscan (scanTK)

[8] = target: T8, LTK (Homo sapiens, UniProt P29376); assay: KINOMEscan ScanTK; type: binding
T8 construct: purchased Eurofins DiscoverX KINOMEscan (scanTK)

[9] = system: BTK Y223 phosphorylation; assay: Immunoblotting, anti-IgM-induced signaling in OCI-LY7 cells; conditions: 500 nM, 1 h
Method: We also investigated the effects of the compounds (at 500 nM) on sIgM signaling by analyzing the phosphorylation status of key signaling molecules activated downstream of the BCR.
Secondary antibodies were horseradish peroxidase-conjugated antibodies (GE Healthcare). Images were captured using the Amersham ImageQuant 800 System and quantified using ImageJ (http://imagej.nih.gov/ij/). Expression of phosphorylated proteins was normalized to the equivalent total protein with values for DMSO/anti-IgM set to 100%.

[10] = target: BTK, full length (2–659) (Homo sapiens, UniProt Q06187); assay: PhosphoSens enzymatic IC50 (AssayQuant); type: biochemical; conditions: for IC50: 1 nM BTK, 1.0 mM ATP; for fold change, 1 nM BTK: IC50 0 min vs 60 min preincubation
Source text: (§1) Biochemical enzymatic IC50 data were generated by AssayQuant Technologies (Marlborough, MA) using the PhosphoSens Platform. […] Reaction rate versus log [inhibitor concentration] data were fitted to the four-parameter logistic equation [drawing 1]

[11] = target: T9, EGFR, cytoplasmic domain (669–1210) (Homo sapiens, UniProt P00533); assay: PhosphoSens enzymatic IC50 (AssayQuant); type: biochemical; conditions: no preincubation
T9 construct: GST (N); purchased Carna Biosciences
Source text: as §1

[12] = target: T10, TNK2 (Homo sapiens, UniProt Q07912); assay: KINOMEscan ScanTK; type: binding
T10 construct: purchased Eurofins DiscoverX KINOMEscan (scanTK)

[13] = target: T11, YES (Homo sapiens, UniProt P07947); assay: KINOMEscan ScanTK; type: binding
T11 construct: purchased Eurofins DiscoverX KINOMEscan (scanTK)

[14] = target: T12, EGFR(T790M) (Homo sapiens, UniProt P00533, T790M); assay: KINOMEscan ScanTK; type: binding
T12 construct: purchased Eurofins DiscoverX KINOMEscan (scanTK)

[15] = @1000nM, EPHB1, read-out: %Control
[16] = EPHB1, read-out: %Control @1000nM
[17] = 0 min preincubation IC50 (nM), 0 min preincubation
[18] = 60 min preincubation IC50 (nM), 60 min preincubation

T12 sequence (P00533 25-1210 T790M): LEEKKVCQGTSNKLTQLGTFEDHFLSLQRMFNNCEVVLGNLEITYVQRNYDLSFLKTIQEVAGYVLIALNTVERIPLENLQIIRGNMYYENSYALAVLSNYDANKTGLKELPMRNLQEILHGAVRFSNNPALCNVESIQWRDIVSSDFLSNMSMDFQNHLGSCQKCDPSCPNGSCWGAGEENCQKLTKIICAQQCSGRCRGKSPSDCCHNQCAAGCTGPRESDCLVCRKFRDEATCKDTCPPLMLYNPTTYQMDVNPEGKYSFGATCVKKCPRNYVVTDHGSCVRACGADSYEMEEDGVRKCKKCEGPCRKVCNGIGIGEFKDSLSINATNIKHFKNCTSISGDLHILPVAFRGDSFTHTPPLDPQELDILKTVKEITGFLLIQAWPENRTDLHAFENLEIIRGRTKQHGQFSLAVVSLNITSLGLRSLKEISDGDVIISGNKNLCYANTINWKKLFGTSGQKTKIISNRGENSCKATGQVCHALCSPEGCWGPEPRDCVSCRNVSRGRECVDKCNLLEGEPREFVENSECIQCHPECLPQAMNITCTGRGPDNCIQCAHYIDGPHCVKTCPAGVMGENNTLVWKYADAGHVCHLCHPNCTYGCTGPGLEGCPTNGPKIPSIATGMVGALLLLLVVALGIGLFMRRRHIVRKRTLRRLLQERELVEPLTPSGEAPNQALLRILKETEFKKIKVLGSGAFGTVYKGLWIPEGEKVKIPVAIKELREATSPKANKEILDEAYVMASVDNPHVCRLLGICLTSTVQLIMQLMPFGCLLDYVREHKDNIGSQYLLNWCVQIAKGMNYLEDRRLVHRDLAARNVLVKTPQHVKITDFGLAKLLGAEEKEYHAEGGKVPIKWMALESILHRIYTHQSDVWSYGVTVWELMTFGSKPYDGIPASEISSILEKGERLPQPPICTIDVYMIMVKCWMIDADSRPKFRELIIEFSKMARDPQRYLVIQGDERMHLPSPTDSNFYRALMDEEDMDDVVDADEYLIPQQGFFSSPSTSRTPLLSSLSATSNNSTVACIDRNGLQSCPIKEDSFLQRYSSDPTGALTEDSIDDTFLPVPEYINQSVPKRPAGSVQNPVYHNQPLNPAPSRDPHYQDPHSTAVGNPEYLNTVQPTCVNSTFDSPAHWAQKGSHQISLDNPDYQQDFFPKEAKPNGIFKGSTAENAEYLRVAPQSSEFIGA
T8 sequence (P29376 17-864): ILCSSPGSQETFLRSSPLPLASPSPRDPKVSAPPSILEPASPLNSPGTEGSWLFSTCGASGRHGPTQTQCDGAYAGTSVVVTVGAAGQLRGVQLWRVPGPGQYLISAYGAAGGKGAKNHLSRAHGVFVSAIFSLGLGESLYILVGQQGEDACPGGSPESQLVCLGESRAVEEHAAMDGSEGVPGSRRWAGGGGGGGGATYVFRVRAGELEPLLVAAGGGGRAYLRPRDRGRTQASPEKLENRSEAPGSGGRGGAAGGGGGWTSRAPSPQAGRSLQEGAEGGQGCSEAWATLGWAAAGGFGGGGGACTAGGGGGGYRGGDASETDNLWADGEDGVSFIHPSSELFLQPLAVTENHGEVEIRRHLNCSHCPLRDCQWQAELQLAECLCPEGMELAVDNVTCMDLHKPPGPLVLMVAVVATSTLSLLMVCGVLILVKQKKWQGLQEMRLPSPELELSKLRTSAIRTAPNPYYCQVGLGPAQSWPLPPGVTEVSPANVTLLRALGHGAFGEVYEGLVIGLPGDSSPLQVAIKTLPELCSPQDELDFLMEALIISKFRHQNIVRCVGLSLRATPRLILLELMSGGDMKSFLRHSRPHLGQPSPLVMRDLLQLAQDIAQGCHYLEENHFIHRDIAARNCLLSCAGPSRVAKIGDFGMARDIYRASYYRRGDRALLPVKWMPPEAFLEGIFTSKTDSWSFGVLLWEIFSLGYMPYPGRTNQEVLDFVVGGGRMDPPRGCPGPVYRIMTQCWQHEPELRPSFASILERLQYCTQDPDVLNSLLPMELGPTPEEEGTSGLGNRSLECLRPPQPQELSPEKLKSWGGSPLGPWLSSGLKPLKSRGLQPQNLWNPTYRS
T10 sequence (Q07912 whole entry): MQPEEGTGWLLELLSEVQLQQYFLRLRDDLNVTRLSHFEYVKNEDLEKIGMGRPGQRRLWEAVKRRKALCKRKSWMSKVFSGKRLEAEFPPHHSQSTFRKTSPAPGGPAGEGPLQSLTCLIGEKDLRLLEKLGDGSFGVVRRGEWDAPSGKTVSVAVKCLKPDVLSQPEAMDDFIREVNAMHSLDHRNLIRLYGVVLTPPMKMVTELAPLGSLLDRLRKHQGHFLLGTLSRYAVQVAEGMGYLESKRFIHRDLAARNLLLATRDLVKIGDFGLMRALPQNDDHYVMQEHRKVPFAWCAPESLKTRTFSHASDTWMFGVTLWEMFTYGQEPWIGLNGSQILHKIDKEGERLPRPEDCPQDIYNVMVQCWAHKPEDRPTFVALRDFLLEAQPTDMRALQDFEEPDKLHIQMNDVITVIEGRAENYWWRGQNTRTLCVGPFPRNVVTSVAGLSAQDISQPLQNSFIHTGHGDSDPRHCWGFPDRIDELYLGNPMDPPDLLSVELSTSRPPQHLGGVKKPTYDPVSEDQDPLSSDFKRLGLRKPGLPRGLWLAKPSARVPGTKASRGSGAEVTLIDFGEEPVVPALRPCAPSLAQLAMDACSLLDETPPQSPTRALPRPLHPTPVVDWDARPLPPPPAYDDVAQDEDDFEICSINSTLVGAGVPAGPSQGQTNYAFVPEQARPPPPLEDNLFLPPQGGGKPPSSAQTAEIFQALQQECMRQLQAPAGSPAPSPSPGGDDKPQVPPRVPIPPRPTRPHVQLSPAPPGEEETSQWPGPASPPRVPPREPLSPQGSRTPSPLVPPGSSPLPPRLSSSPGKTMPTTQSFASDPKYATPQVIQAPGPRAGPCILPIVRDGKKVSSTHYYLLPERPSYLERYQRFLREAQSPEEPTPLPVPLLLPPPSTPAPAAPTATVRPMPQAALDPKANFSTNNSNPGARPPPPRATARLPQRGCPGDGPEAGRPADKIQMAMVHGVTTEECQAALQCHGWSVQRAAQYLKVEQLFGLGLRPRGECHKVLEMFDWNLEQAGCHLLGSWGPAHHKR
T5 sequence (Q9UM73 19-1620 L1196M): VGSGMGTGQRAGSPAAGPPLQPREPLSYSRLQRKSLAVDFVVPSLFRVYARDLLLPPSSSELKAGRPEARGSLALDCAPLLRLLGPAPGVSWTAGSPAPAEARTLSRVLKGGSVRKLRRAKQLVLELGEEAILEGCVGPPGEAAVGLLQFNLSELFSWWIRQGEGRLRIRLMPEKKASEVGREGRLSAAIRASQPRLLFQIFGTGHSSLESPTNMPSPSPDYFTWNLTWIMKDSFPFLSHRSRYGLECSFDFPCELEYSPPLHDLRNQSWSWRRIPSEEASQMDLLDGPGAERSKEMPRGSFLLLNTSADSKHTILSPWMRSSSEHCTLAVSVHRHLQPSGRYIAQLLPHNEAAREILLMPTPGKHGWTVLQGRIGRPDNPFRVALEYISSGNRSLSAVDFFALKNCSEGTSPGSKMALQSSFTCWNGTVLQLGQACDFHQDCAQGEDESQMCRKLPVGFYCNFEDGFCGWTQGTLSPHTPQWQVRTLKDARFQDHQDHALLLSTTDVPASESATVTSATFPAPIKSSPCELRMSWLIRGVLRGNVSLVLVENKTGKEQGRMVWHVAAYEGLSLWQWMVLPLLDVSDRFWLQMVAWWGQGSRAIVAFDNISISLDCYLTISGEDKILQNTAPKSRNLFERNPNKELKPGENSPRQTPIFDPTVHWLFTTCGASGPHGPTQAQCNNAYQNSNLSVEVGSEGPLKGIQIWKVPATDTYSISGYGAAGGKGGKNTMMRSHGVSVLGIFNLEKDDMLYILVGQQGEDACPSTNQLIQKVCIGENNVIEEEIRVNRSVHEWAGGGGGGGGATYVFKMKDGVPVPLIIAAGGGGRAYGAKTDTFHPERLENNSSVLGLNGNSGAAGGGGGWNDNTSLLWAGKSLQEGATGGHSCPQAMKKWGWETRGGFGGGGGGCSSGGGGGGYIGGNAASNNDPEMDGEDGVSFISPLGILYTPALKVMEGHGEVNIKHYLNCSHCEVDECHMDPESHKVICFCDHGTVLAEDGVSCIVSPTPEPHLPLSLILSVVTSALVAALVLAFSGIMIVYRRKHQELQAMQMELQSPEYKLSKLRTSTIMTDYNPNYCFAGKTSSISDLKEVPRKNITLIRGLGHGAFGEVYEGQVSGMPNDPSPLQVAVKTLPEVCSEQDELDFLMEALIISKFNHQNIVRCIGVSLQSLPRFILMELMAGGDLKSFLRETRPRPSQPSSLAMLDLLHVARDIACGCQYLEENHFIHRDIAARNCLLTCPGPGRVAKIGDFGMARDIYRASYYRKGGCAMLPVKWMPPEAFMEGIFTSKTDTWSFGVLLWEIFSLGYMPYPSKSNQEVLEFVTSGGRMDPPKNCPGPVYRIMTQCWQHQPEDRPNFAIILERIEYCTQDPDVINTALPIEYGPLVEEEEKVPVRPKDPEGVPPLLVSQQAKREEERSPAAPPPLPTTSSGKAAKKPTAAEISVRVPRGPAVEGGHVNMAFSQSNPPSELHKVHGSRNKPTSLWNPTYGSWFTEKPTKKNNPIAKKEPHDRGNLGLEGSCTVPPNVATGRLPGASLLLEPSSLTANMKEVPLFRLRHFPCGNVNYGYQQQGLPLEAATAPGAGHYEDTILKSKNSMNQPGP

Compound	remaining binding at 1 µM ([2]; @1000nM, read-out: %Control) [%]	remaining binding at 1 µM ([2]; read-out: %Control @1000nM) [%]	remaining binding at 1 µM ([3]; @1000nM, read-out: %Control) [%]	remaining binding at 1 µM ([3]; read-out: %Control @1000nM) [%]	remaining binding at 1 µM ([4]; @1000nM, read-out: %Control) [%]	remaining binding at 1 µM ([4]; read-out: %Control @1000nM) [%]	remaining binding at 1 µM ([5]; @1000nM, read-out: %Control) [%]	remaining binding at 1 µM ([5]; read-out: %Control @1000nM) [%]	remaining binding at 1 µM ([6]; @1000nM, read-out: %Control) [%]	remaining binding at 1 µM ([6]; read-out: %Control @1000nM) [%]	remaining binding at 1 µM ([7]; @1000nM, read-out: %Control) [%]	remaining binding at 1 µM ([7]; read-out: %Control @1000nM) [%]	remaining binding at 1 µM ([8]; @1000nM, read-out: %Control) [%]	remaining binding at 1 µM ([8]; read-out: %Control @1000nM) [%]	anti-IgM-induced BTK Y223 phosphorylation [9]	difference in % of control versus compound Ib at 1 µM ([1]; @1000nM, EPHB1) [%]	remaining binding at 1 µM [1, 15] [%]	remaining binding at 1 µM [1, 16] [%]	IC50 [10, 17] [nM]	IC50 [10, 18] [nM]	other results
C=CC(=O)N1CCC[C@@H](n2nc(-c3ccc(Oc4ccccc4)cc3)c3c(N)ncnc32)C1 [Compound 1g, Ibrutinib, reference compound]	96	96	80	80	91	91	100	100	93	93	91	91	81	81	strongly inhibited	–	–	–	–	–	remaining binding at 1 µM ([1]; read-out: %Control): 90%; remaining binding at 1 µM ([1]; read-out: %Control @1000nM): 90%
COC(=O)c1cnc(S(C)(=O)=O)nc1N1CCCC(n2nc(-c3ccc(Oc4ccccc4)cc3)c3c(N)ncnc32)C1 (centres unmarked) [Compound 8b, Methyl 4-(3-(4-Amino-3-(4-phenoxyphenyl)-1H-pyrazolo[3,4-d]pyrimidin-1-yl)piperidin-1-yl)-2-(methylsulfonyl)pyrimidine-5-carboxylate]	96	96	92	92	98	98	92	92	76	76	78	78	94	94	selectively reduced BTK Y^223 phosphorylation	-2	88	88	79	6.3	fold change, 1 nM BTK [10]: 12.5; 0 min IC50 (nM), 3 nM EGFR [11]: none of the compounds, 8a, 8b, or 8d, exhibited measurable inhibition; pIC50 [11]: < 6.00; difference in %Control versus compound Ib at 1 µM ([3]; @1000nM): 12%; %Control difference from compound Ib at 1 µM ([4]; @1000nM): 7%; remaining binding at 1 µM ([12]; @1000nM, read-out: %Control): 100%; remaining binding at 1 µM ([12]; read-out: %Control @1000nM): 100%; remaining binding at 1 µM ([13]; @1000nM, read-out: %Control): 16%; remaining binding at 1 µM ([13]; read-out: %Control @1000nM): 16%; difference in % of control vs compound Ib at 1 µM ([5]; @1000nM): -8%; difference in % of control versus compound Ib at 1 µM ([6]; @1000nM): -17%; difference in %Control versus compound Ib at 1 µM ([7]; @1000nM): -13%; difference in % of control versus compound Ib at 1 µM ([14]; @1000nM): 41.5%; remaining binding at 1 µM ([14]; @1000nM, read-out: %Control): 42%; remaining binding at 1 µM ([14]; read-out: %Control @1000nM): 42%
CNC(=O)c1cnc(S(C)(=O)=O)nc1N1CCCC(n2nc(-c3ccc(Oc4ccccc4)cc3)c3c(N)ncnc32)C1 (centres unmarked) [Compound 8d, 4-(3-(4-Amino-3-(4-phenoxyphenyl)-1H-pyrazolo[3,4-d]pyrimidin-1-yl)piperidin-1-yl)-N-methyl-2-(methylsulfonyl)pyrimidine-5-carboxamide]	100	100	99	99	100	100	79	79	77	77	89	89	100	100	–	1	91	91	3.6	1.2	fold change, 1 nM BTK [10]: 3.1; 0 min IC50 (nM), 3 nM EGFR [11]: none of the compounds, 8a, 8b, or 8d, exhibited measurable inhibition; pIC50 [11]: < 6.00; difference in %Control versus compound Ib at 1 µM ([3]; @1000nM): 19%; %Control difference from compound Ib at 1 µM ([4]; @1000nM): 9%; remaining binding at 1 µM ([12]; @1000nM, read-out: %Control): 100%; remaining binding at 1 µM ([12]; read-out: %Control @1000nM): 100%; remaining binding at 1 µM ([13]; @1000nM, read-out: %Control): 11%; remaining binding at 1 µM ([13]; read-out: %Control @1000nM): 11%; difference in % of control vs compound Ib at 1 µM ([5]; @1000nM): -21%; difference in % of control versus compound Ib at 1 µM ([6]; @1000nM): -16%; difference in %Control versus compound Ib at 1 µM ([7]; @1000nM): -2%; difference in % of control versus compound Ib at 1 µM ([14]; @1000nM): 18.6%; remaining binding at 1 µM ([14]; @1000nM, read-out: %Control): 19%; remaining binding at 1 µM ([14]; read-out: %Control @1000nM): 19%
